Consider five compounds from patent US20060293216A1, “Pharmaceutical compositions comprising an active agent and chitosan for sustained drug release or mucoadhesion” (ADVANCED BIOPOLYMERS AS, priority 2003, published 2006).

The structures appear in SMILES notation.

Holding throughout (type): physicochemical
Data set [1] in a line: Release of warfarin from warfarin/chitosan (dialysis, UV 293 nm). The conditions noted are these: buffered solution pH 7.4. The protocol:
The salt of warfarin/chitosan (from Example 7 above) (1.09 g) was suspended in a buffered solution with pH 7.4 (10 ml). The suspension was transferred into the dialysis tube (cut off 12-14 kDa) before the tube was transferred into a buffered solution of pH 7.4 (100 ml) under continuous stirring. 2 ml samples of the dialysate were taken at different times and the UV-absorbances measured with an UV-apparatus at 293 nm. As a control experiment, warfarin (0.38 g, 1.2 mmol) was dissolved in a buffered solution of pH 7.4 (10 ml) and transferred into the dialysis tube (cut off 12-14 kDa). 2 ml samples of the dialysate were taken at different times and the UV-absorbances measured with an UV-apparatus at 293 nm. The amounts of warfarin in dialysate are shown in Table 3 as a percentage of maximum detected amounts.

The nature of data set [2]: Release of salicylate through a dialysis membrane with and without chitosan. The conditions noted are these: 30 mM salicylate in 154 mM NaCl, pH 4.5; 3 (w/v)% chitosan (FA 0.41, hydrochloride salt); FIG. 2. Here is the method:
The chitosan used in this Example was prepared from a chitosan produced as described in WO 03/011912 (FA 0.41, [η]=1060 ml/g), which was depolymerized and at the same time converted to the chitosan hydrochloride salt using 3M ethanolic HCl. Excess ethanolic chitosan was removed, the chitosan washed with excess 70% ethanol, 96% ethanol and finally dried to obtain the chitosan hydrochloride salt. The intrinsic viscosity was determined to 200 ml/g, corresponding to a number-average molecular weight of 40 000 (Anthonsen et al., 1993, Carbohydr. Polym. (1993) 22 193-201). 30 mM Salicylic acid was dissolved in distilled water upon addition of equimolar amounts of sodium hydroxide, and sodium chloride was added to a final concentration of 154 mM. The pH was adjusted to 4.5. Each of the solutions containing salicylate or paracetamol was added to a small glass vial (10 ml) equipped with a dialysis membrane (d=14.3 mm, cut off 10-12 kDa). The glass vials were placed in a 1 litre reservoir containing 154 mM NaCl, pH 4.5. Samples of 3.0 ml were regularly withdrawn from the reservoir and the absorbance was measured at 297.0 nm (salicylic acid) and 243.3 nm (paracetamol). Each experiment was run with 6 parallels. The same experiment was performed with paracetamol and the salicylate solutions to which had been added 3 (w/v)% of the chitosan. […]

Data set [3] is described as follows: Release of acetylsalicylic acid from chitosan (dialysis, UV). The conditions noted are these: acetylsalicylic acid 100 mg, chitosan 250 mg, against tris buffer pH7. The protocol:
Acetylsalicylic acid (100 mg) and chitosan (various degrees of acetylation) (250 mg) were added to a diluted aqueous HCl solution at pH 2 (10 ml). The mixture was stirred for 30 minutes at 80° C., cooled to room temperature, transferred to a dialysis tube (cut off 12-14 kDa) and dialysed against tris buffer pH7 (100 ml). The amount of acetylsalicylic acid in the dialysate was determined by UV.
(§1) An experiment without chitosan was performed as a comparison.
The amounts of acetylsalicylic acid in dialysate are shown in Table 1 as a percentage of maximum detected amounts.

Data set [4] can be described thus: Release of paracetamol through a dialysis membrane with and without chitosan. Particulars: 10 mM paracetamol in 154 mM NaCl, pH 4.5; 3 (w/v)% chitosan (FA 0.41, hydrochloride salt); followed for 2 days; FIG. 1. Here is the method:
The chitosan used in this Example was prepared from a chitosan produced as described in WO 03/011912 (FA 0.41, [η]=1060 ml/g), which was depolymerized and at the same time converted to the chitosan hydrochloride salt using 3M ethanolic HCl. Excess ethanolic chitosan was removed, the chitosan washed with excess 70% ethanol, 96% ethanol and finally dried to obtain the chitosan hydrochloride salt. The intrinsic viscosity was determined to 200 ml/g, corresponding to a number-average molecular weight of 40 000 (Anthonsen et al., 1993, Carbohydr. Polym. (1993) 22 193-201). 10 mM Paracetamol was dissolved in 154 mM NaCl at pH 4.5. Each of the solutions containing salicylate or paracetamol was added to a small glass vial (10 ml) equipped with a dialysis membrane (d=14.3 mm, cut off 10-12 kDa). The glass vials were placed in a 1 litre reservoir containing 154 mM NaCl, pH 4.5. Samples of 3.0 ml were regularly withdrawn from the reservoir and the absorbance was measured at 297.0 nm (salicylic acid) and 243.3 nm (paracetamol). Each experiment was run with 6 parallels. The same experiment was performed with paracetamol and the salicylate solutions to which had been added 3 (w/v)% of the chitosan. […] No difference in the release profile of the neutral drug paracetamol with and without chitosan could be detected.

A short description of data set [5]: Effect of chitosan on availability of norfloxacin (dialysis, UV). Particulars: norfloxacin 100 mg, against tris buffer pH 7. The protocol: Norfloxacin (100 mg) and chitosan (FA=0.35, η=1250) (250 mg) were added to a diluted aqueous HCl solution pH 2 (10 ml). The mixture was stirred for 2 hours at 80° C., cooled to room temperature and dialysed against tris buffer pH 7 (100 ml). The amount of norfloxacin in dialysate was determined by UV.
as §1
The amounts of norfloxacin in dialysate are shown as a percentage of maximum detected amounts.

Turning to `CC(=O)CC(c1ccccc1)c1c(O)c2ccccc2oc1=O` (stereo not shown) [Warfarin], the “amount of warfarin in dialysate” value in data set [1] (time 2½ hours) is given as 49.8 percentage of maximum detected amounts; in data set [1] (time 4 hours), 49.0 percentage of maximum detected amounts; in data set [1] (time 20 hours) it was 100 percentage of maximum detected amounts; in data set [1] (time ½ hours) it was 14.8 percentage of maximum detected amounts.

Take `O=C(O)c1ccccc1O` [salicylate, Salicylic acid]: the “release of salicylate with and without chitosan” value in data set [2] is recorded as “clear difference”.

For the compound `CC(=O)Oc1ccccc1C(=O)O` [No chitosan, Acetylsalicylic acid], the “amount of acetylsalicylic acid in dialysate” value in data set [3] (time for dialysis 0.25 hours) is listed as 52 percentage of maximum detected amounts; in data set [3] (time for dialysis 0.5 hours) it was 87 percentage of maximum detected amounts; in data set [3] (time for dialysis 1 hour), 97 percentage of maximum detected amounts; in data set [3] (time for dialysis 2 hours) it was 98 percentage of maximum detected amounts; in data set [3] (time for dialysis 19 hours), 99 percentage of maximum detected amounts.

Take `CC(=O)Nc1ccc(O)cc1` [paracetamol, Paracetamol]: the “release profile of paracetamol with and without chitosan” value in data set [4] was “No difference”.

Turning to `CCn1cc(C(=O)O)c(=O)c2cc(F)c(N3CCNCC3)cc21` [Without chitosan, Norfloxacin], the “amount of norfloxacin in dialysate” value is given as 66 percentage of maximum detected amounts in data set [5] (time for dialysis 0.25 hours); 72 percentage of maximum detected amounts in data set [5] (time for dialysis 0.5 hours); 100 percentage of maximum detected amounts in data set [5] (time for dialysis 1 hour); 100 percentage of maximum detected amounts in data set [5] (time for dialysis 2 hours); 100 percentage of maximum detected amounts in data set [5] (time for dialysis 4 hours).
